{"source": "patent US20240108634A1", "about": "“COMPOSITIONS AND METHODS FOR INHIBITING YAP” (The United States Government as represented by the …, priority 2021, published 2024)", "key": {"LN229 and GBM39 cells": {"tested_on": "LN229 and GBM39 cells", "test": "Soft agar colony formation (anchorage-independent growth)", "assay_type": "cell-based, human", "details": "LN229 and GBM39, 14 days", "excerpt": "Cells were layered in soft agar to evaluate anchorage-independent growth in the presence of the indicated concentrations of inhibitor and colonies counted following 14 days of growth. Representative crystal violet stained images are shown below. Data represent mean+S.D. of three independent experiments. […] Cells were placed in Boyden chambers and allowed to migrate towards BSA (white bars), vitronectin (light yellow bars), or fibronectin (dark yellow bars) (*, P<0.05; n=3). […] Representative crystal violet stained images are shown (200×). Data represent mean+S.D. of three independent experiments. […] Graphical data shown below represent mean+S.D. (late apoptosis; annexin V-positive, PI-positive) of three independent experiments.\n(§1) Cell proliferation, clonogenic, migration, invasion and apoptosis assays. Cell proliferation was determined via Cell Titer-Glo® luminescent cell assays (Promega). Clonogenic assays were done by plating a total of 1,000 cells per well in 24-well plates in a total volume of 400 μL using a two-layered soft agar system as previously described (Masri J, et al. (2007) Cancer Res 67: 11712-11720). Cell migration assays were conducted using precoated modified Boyden chambers as previously described (Benavides-Serrato A, et al. (2017) PLoS One 12: e0176599). […]"}, "[1]": {"test": "Toxicity in treated mice (weight, blood cell counts, ALT, AST, creatinine)", "assay_type": "in vivo", "excerpt": "Data are expressed as percent of control mice that received vehicle and assigned 100%.\nMaterials and Methods. Cell culture, vectors and reagents. Normal mature human neurons were obtained from ScienCell (Carlsbad, CA). Lines were routinely tested to confirm the absence of mycoplasma and authenticated by short tandem repeat profiling (ATCC). The myc-tagged TEAD (pRK5-Myc-TEAD1) and HA-tagged YAP1 (pCl-HA-YAP) vectors were used for mammalian expression and TEAD was subcloned into pGEX-2TK, while YAP was subcloned into pET-14b for bacterial expression and purification. DNA transfections were performed using Effectene transfection reagent according to the manufacturer (QIAGEN) and lentiviral transductions were performed as previously described (Rosenbluh J, et al. (2012) Cell 151: 1457-1473). Large-scale syntheses of NSC682769 was performed by New England Discovery Partners, Branford, CT. The other reagents including kits for ALT, AST and creatinine level determinations were from Sigma-Aldrich.\nNSC682769 inhibits GBM tumor growth in xenografted mice. To examine the effects of NSC682769 in vivo, the ability of the compound to inhibit the growth of LN229 xenografted tumors implanted subcutaneously in SCID mice was tested. Following implantation, when tumors reached ˜200 mm^3, mice were randomized into treatment groups receiving vehicle, 5 mg/kg/d and 20 mg/kg/d of NSC682769. […]"}, "T98G cells": {"tested_on": "T98G cells", "test": "Cell Titer-Glo sensitivity of T98G cells with YAP1 knockdown or overexpression", "assay_type": "cell-based, human", "details": "72 h", "excerpt": "Nuclear and cytoplasmic fractions were immunoblotted for YAP, HSP90 and lamin B2. FIG. 4B show quantification of nuclear YAP expression levels from a as determined by densitometric analyses. Relative nuclear YAP1 expression in U87 cells was arbitrarily assigned a value of 1. Nuclear YAP expression in the cell lines is shown as mean+S.D., n=3. […] Relative nuclear YAP expression was obtained from FIG. 4B above. […] Data represent mean±S.D. of three independent experiments (*, P<0.05).\nas §1, with “11712-11720).” for “11712-11720). Cell migration assays were conducted using precoated modified Boyden chambers as previously described (Benavides-Serrato A, et al. (2017) PLoS One 12: e0176599).”\nIncreased YAP expression directly correlates with NSC682769 sensitivity in GBM cells. […] To examine whether differences in YAP expression may alter sensitivity to NSC682769, the relative expression of nuclear versus cytoplasmic YAP was determined in a panel of GBM lines (FIG. 4A). […] Cell viability was then determined using ATP-release assays on these lines over a wide range of NSC682769 concentrations and IC50s calculated (FIG. 4C). […]"}}}
{"smiles": "COc1ccc(-c2cc(-c3ccccc3)nc3c2CC(=O)Nc2ccccc2-3)cc1OC", "note": "[NSC682769]", "values": [{"measurement": "Clonogenic growth in soft agar", "setting": "LN229 and GBM39 cells", "value": "inhibited"}, {"measurement": "Overt toxicity or weight loss", "setting": "[1]; 5 and 20 mg/kg/d", "value": "No overt short or long-term toxicity or weight loss"}, {"measurement": "Blood cell counts, serum ALT, AST, creatinine", "setting": "[1]; daily IP, 5 days, 5 or 20 mg/kg/d", "value": "neither blood cell counts nor serum alanine aminotransferase (ALT), aspartate aminotransferase (AST) or creatinine levels were affected"}, {"measurement": "Sensitivity versus parental T98G line", "setting": "T98G cells; T98G with YAP1 knocked down (shRNA)", "value": "relatively resistant"}, {"measurement": "Sensitivity versus parental T98G line", "setting": "T98G cells; T98G with YAP1 overexpressed", "value": "significantly more sensitive"}]}
